The results in this text go back to patent US10584132B2, “SHMT inhibitors” (The Trustees of Princeton University, priority 2016, dated 2020).

A short description of data set [1]: LogP Value. The class given is physicochemical.
The subject of data set [2] is HCT-116 WT cells. Nature of the data set: Cell growth assay (resazurin), HCT-116 wild type, with or without formate. The data set is classed as cell-based, human. The note with it: for rescue of effects on cell growth by addition of formate: HCT-116, formate. The procedure: (§1) The described cell lines for Examples 8 and 9 are cultured in 96-well plates in Dulbecco's modified eagle media (DMEM) without pyruvate (CELLGRO) with 10% dialysed fetal bovine serum (Invitrogen) in 5% CO2 at 37° C. Approximately 2,500 cells are plated in each well in 90 uL of media. After 24 hours cells are treated with various concentrations of inhibitor (time=0 hours), with or without formate. Growth was assessed at multiple time points (time=0, 24, 48, 72 hours) through measurement of fluorescence at 595 nm (excitation at 535 nm) on a BioTek micro titer plate reader after incubation with resazurin (0.01 mg/mL for 1.5 hours). IC50 curves are generated from percent inhibition of growth at 72 hours.
On the technique in general: The colour change of resazurin is a common sign of viable cells or microbes.

Data set [3] concerns HCT-116 ΔSHMT2 cells. Nature of the data set: Cell growth assay, HCT-116 SHMT2 deletion (knock-out) cells. The data set is classed as cell-based, human. Here is the method:
as §1
Clonal deletion cell lines of SHMT1, SHMT2, and SHMT1/2 were generated from the human colorectal carcinoma cell line HCT-116. Paired Cas9 nickase (Cas9n) containing constructs that encoded single-guide RNA sequences targeting SHMT1 or 2 were transiently transfected into cells, and mutant colonies from single clones were picked as described in Ducker et al., (2016) Reversal of Cytosolic One-Carbon Flux Compensates for Loss of the Mitochondrial Folate Pathway, Cell Metab 23, 1140-1153. SHMT1 deletion had no effect on cell growth either in cell culture or as subcutaneous xenografts in nude mice. In contrast, SHMT2 deletion cells grew slower in culture and as xenografts (FIG. 8A).

Data set [4] can be described thus: Liver microsome assay. The data set is classed as in vitro ADME. The note with it: pooled male mouse liver microsomes, 2 μM. Here is the method:
The following master solution was prepared before compound addition:
Two separate experiments were performed as follows: a) With Cofactors (NADPH and UDPGA): 40 μL of 10 mM NADPH and 40 μL of 20 mM UDPGA were added to the incubations. The final concentrations of microsomes, NADPH and UDPGA were 0.5 mg/mL, 1 mM and 2 mM, respectively. b) Without Cofactors (NADPH and UDPGA): 10 μL of 20 mg/mL liver microsomes and 80 μL of ultra-pure water were added to the incubations. The final concentration of microsomes was 0.5 mg/mL. The mixture was pre-warmed at 37° C. for 5 minutes.
The reaction was started with the addition of 4 μL of 200 μM control compound or test compound solution. Verapamil was used as positive control in this study. The final concentration of test compound or control compound was 2 μM. The incubation solution was incubated in water bath at 37° C. Aliquots of 50 μL were taken from the reaction solution at 0.5, 5, 15, 30, 45 and 60 minutes. The reaction was stopped by the addition of 5 volumes of cold acetonitrile with IS (100 nM alprazolam, 200 nM caffeine and 100 nM tolbutamide). Samples were centrifuged at 3,220 g for 40 minutes. Aliquot of 100 μL of the supernatant was mixed with 100 μL of ultra-pure H2O and then used for LC-MS/MS analysis. The in vitro half-life (in vitro t1/2) was determined from the slope value of the LC-MS signal of the test compound.
A general note: Microsomes from liver hold many membrane-bound enzymes, among them those of drug oxidation.

For data set [5], the target named is human SHMT2 (Homo sapiens (Human), UniProt P34897). Nature of the data set: SHMT2 in vitro enzymatic assay (coupled with excess MTHFD2, NADH absorption at 340 nm). The class given is biochemical.
Chain of human SHMT2 (P34897 30-504): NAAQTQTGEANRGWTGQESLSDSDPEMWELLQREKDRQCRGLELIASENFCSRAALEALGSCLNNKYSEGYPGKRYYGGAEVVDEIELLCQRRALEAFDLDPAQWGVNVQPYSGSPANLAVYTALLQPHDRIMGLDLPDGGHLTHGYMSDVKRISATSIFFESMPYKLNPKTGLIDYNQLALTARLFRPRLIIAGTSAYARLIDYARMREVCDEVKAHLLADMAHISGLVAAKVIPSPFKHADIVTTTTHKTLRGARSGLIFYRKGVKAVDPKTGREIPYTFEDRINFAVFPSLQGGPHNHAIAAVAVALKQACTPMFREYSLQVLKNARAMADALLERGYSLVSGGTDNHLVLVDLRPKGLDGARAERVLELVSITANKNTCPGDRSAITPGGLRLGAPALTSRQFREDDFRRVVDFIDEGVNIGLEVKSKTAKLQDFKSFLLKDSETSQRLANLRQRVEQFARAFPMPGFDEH
Protocol: (§2) For the SHMT1 and SHMT2 in vitro enzymatic assays, the rate of 5,10-methylene tetrahydrofolate formation catalyzed by SHMT1/2 was indirectly evaluated by coupling with excess MTHFD2, which converts NAD+ to NADH allowing for reaction monitoring by absorption at 340 nm. […] Inhibition of initial reaction velocity was determined by adding various inhibitors at different concentrations and monitored as described. IC50 may be calculated based on this assay.
In data set [6] the target is human SHMT1 (Homo sapiens (Human), UniProt P34896). Kind of data set: SHMT1 in vitro enzymatic assay (coupled with excess MTHFD2, NADH absorption at 340 nm). The class given is biochemical.
Chain of human SHMT1 (P34896 whole entry): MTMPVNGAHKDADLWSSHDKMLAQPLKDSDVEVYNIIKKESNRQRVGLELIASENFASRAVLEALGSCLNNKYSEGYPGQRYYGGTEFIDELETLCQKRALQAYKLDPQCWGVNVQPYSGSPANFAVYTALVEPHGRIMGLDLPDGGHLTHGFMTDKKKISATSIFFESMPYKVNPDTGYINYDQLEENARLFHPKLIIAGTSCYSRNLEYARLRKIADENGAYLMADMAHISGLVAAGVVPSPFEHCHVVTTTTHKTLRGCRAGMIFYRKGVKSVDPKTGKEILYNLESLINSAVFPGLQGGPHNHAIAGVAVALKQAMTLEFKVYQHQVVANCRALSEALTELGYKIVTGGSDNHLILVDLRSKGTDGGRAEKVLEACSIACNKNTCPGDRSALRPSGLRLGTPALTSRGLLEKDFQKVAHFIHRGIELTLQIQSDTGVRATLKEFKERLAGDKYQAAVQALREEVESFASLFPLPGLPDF
Protocol: as §2
For data set [7], the system named is 8988T cells. Kind of data set: Growth of pancreatic cancer cell line 8988T. The class given is cell-based, human.
In data set [8] the test system is Su-DHL-4 cells. Kind of data set: Apoptosis by flow cytometry (Annexin V surface staining), Su-DHL-4. As to conditions: for apoptotic fraction of cells: 24 hours. The data set is classed as cell-based, human. The text has this: Apoptosis was enhanced by co-treatment with formate. In contrast, as expected, formate rescued Jurkat E6-1 leukemia cells from apoptosis (FIG. 11C). Without wishing to be bound by theory, it is hypothesized that the failure of formate to rescue growth in the DLBCL cell lines is due to a requirement for both glycine and 1C units made by SHMT in these cells. When glycine is limiting, formate can enhance the cytotoxicity of SHMT inhibition. […] Mechanistically, by supplying 5,10-methylene-THF, formate may drives residual SHMT enzymatic function in the […] direction.
In contrast, cell growth is further decreased in Su-DHL4 cells by addition of formate. This can be further exacerbated by removal of glycine from the media. […] Using flow cytometry, apoptosis of Su-DHL4 cells were studied with AnnexinV surface staining (FIGS. 12D and 12E).
In general terms: A flow cytometer gives signals particle by particle.

Data set [9] deals with Su-DHL-4 cells. Nature of the data set: Growth of Su-DHL-4 cells in RPMI. The class given is cell-based, human. As to conditions: for cell growth (or death) over 48 h: Su-DHL-4, 5 μM. The procedure:
Cells were stained with propidium iodide and FITC conjugated Annexin V. 10,000 events shown. […] All conditions included at least normal media glycine (10 mg/L) (mean±SD, n=3).
Co-culture with 1 mM formate restores nucleotide levels selectively in Jurkat cells (mean±SD, n=3-6). […] Note the low uptake in Su-DHL-4 cells (gly=glycine, GSH=glutathione) (mean±SD, n=3). […] The SHMT reaction makes two products, 5,10-methyleneTHF and glycine. When SHMT is inhibited, exogenous formate can be incorporated into the 1C cycle whereas in B-cells poor glycine uptake limits the ability of extracellular glycine to rescue. Strategies that further stress glycine availability augment the efficacy of SHMT inhibition.

SMILES strings stand for the structures.

By logP is commonly meant a log measure of how a compound divides between an organic and an aqueous phase. High values mean a more lipophilic compound, low ones a more hydrophilic compound. In [1], `Cc1n[nH]c2c1C(c1cc(C#CCCC(=O)O)cc(C(F)(F)F)c1)(C(C)C)C(C#N)=C(N)O2` (centres unmarked) [Compound 4] gave a logP of 3.56. In turn, `Cc1n[nH]c2c1C(c1cc(C#CCCCN)cc(C(F)(F)F)c1)(C(C)C)C(C#N)=C(N)O2` (centres unmarked) [Compound 8] yielded a log partition coefficient (logP) in data set [1] of 2.72. Same read-out and setting: the figure for `Cc1n[nH]c2c1C(c1cc(C#CCCC(N)=O)cc(C(F)(F)F)c1)(C(C)C)C(C#N)=C(N)O2` (centres unmarked) [Compound 11] is 3.22. In the case of `Cc1n[nH]c2c1C(c1cc(C#CCCCO)cc(C(F)(F)F)c1)(C(C)C)C(C#N)=C(N)O2` (centres unmarked) [Compound 61, 6-amino-4-(3-(5-hydroxypent-1-yn-1-yl)-5-(trifluoromethyl)phenyl)-4-isopropyl-3-methyl-1,4-dihydropyrano[2,3-c]pyrazole-5-carbonitrile], the “inhibition of growth (proliferation) of HCT116 cells” value in [2] (native HCT116) was “inhibited growth”. Besides, in [3], the “inhibition of growth of SHMT2 knock-out HCT116 cells versus native” value is “increased potency”. `Cc1n[nH]c2c1C(c1cc(C#N)cc(C#CCCC(=O)O)c1)(C(C)C)C(C#N)=C(N)O2` (centres unmarked) [Compound 68] returned a lipophilicity (logP) in [1] of 2.37.

With `Cc1n[nH]c2c1C(c1cc(C#CCCC(=O)N[C@@H](CCC(=O)O)C(=O)O)cc(C(F)(F)F)c1)(C(C)C)C(C#N)=C(N)O2` (some centres unmarked) [Compound 69], the logP in data set [1] was 2.49. In turn, `Cc1n[nH]c2c1C(c1cc(C#N)cc(C#CCCCO)c1)(C(C)C)C(C#N)=C(N)O2` (centres unmarked) [Compound 71] came in with a logP in data set [1] of 2.89. Consider `Cc1n[nH]c2c1C(c1cc(C#CCCCO)cc(CO)c1)(C(C)C)C(C#N)=C(N)O2` (centres unmarked) [Compound 74], for which the “CLint (replicate 2)” value in [4] came out at 67.96 μL/min/mg protein. Broadly, the IC50 is the concentration that inhibits the measured activity by half. Lower therefore signals higher potency. In data set [5], `Cc1n[nH]c2c1C(c1cccc(Cl)c1)(C1CCC1)C(C#N)=C(N)O2` (centres unmarked) [HK-3] displayed a 50% inhibitory concentration (IC50) of 1.19 µM. Consider `COc1cccc(C2(C(C)C)C(C#N)=C(N)Oc3[nH]nc(C)c32)c1` (centres unmarked) [HK-6], for which the IC50 in [5] is 4.58 µM. This IC50 lies about 3.8-fold higher than the previous one. The same measure, in the same setting: the figure for `Cc1n[nH]c2c1C(c1cccc(Cl)c1)(C(C)C)C(C#N)=C(N)O2` (centres unmarked) [HK-7] is 0.401 µM. The same measure, in the same setting: for `COc1cc(Cl)cc(C2(C3CCC3)C(C#N)=C(N)Oc3[nH]nc(C)c32)c1` (centres unmarked) [HK-9] the value was 3.46 µM. With `Cc1n[nH]c2c1C(c1cc(Cl)cc(Cl)c1)(C1CCC1)C(C#N)=C(N)O2` (centres unmarked) [HK-10], the IC50 in [5] is 1.19 µM; in data set [6], 0.593 µM.

Compound `Cc1n[nH]c2c1C(c1cc(Cl)cc(C(F)(F)F)c1)(C1CCC1)C(C#N)=C(N)O2` (centres unmarked) [HK-11] registered an IC50 in [5] of 0.1 µM. `Cc1n[nH]c2c1C(c1cc(C(F)(F)F)cc(C(F)(F)F)c1)(C1CCC1)C(C#N)=C(N)O2` (centres unmarked) [HK-12]: the 50% inhibitory concentration (IC50) in [5] was found to be 0.168 µM; in data set [6] it was 0.206 µM.

In turn, `COc1cc(Cl)cc(C2(C(C)C)C(C#N)=C(N)Oc3[nH]nc(C)c32)c1` (centres unmarked) [HK-13] had an IC50 in data set [5] of 0.5 µM. On to `Cc1n[nH]c2c1C(c1cc(Cl)cc(Cl)c1)(C(C)C)C(C#N)=C(N)O2` (centres unmarked) [HK-14], for which the figures for the concentration for half-maximal inhibition (IC50) in [5] and in data set [6] were 0.131 µM and 0.067 µM, respectively. The like results for `Cc1n[nH]c2c1C(c1cc(Cl)cc(C(F)(F)F)c1)(C(C)C)C(C#N)=C(N)O2` (centres unmarked) [HK-15] were, in that order, 0.035 µM and 0.02 µM. In the case of `Cc1n[nH]c2c1C(c1cc(N3CCCC3)cc(C(F)(F)F)c1)(C(C)C)C(C#N)=C(N)O2` (centres unmarked) [HK-X1], the figures for the half-inhibitory concentration (IC50) in data set [5] and in data set [6] were 0.066 µM and 0.013 µM, respectively. The “rescue of effects on cell growth by addition of formate” value in data set [2] is recorded as “rescued”. For orientation: IC70 means the concentration at which the effect reaches the 70% level. High values mean a need for much substance, low ones an effect from little substance. Regarding `Cc1n[nH]c2c1C(c1cc(CO)cc(-c3ccccc3)c1)(C(C)C)C(C#N)=C(N)O2` (centres unmarked) [HK-X2], in [2], the “rescue of effects on cell growth by addition of formate” value is “rescued”. Moreover, the “concentration that impairs cell growth” value in data set [7] is reported as under 100 nM. Moreover, the “apoptotic fraction of cells” value in data set [8] (Su-DHL4, inhibitor alone) worked out at 8%; in data set [8] (Su-DHL4, inhibitor in the presence of formate), 15%. Also, the “apoptosis measured by Annexin V surface staining” value in [8] (Su-DHL-4, co-treatment with formate) is listed as “enhanced”; in data set [8] (Su-DHL-4, inhibitor alone), “induced apoptosis”. This compound registered an IC70 in [9] (SU-DHL4, RPMI) of 5 µM. In addition, the “cell growth (or death) over 48 h” value in data set [9] (formate (1 mM) added) was “fully cytostatic”; in data set [9] (formate added and glycine removed) it was “significant cell death”.
